Here are results for one compound from patent US6534676B2, “Method to treat chronic heart failure and/or elevated cholesterol levels using 3,5-diiodothyropropionic acid and method to prepare same” (The Arizona Board of Regents on Behalf of the University of …, priority 2001, dated 2003).

Assay [1] is described as follows: Heart failure patients: echocardiography. The class given is in vivo, human. Conditions: for Shortening velocity: baseline 0.69 ± 0.15; for Ratio of early to late filling: baseline 1.10 ± 0.21; for LV diastolic dimension: baseline 6.84 ± 0.33; for Fractional shortening: baseline 17.0 ± 3.5; for Isovolumic relaxation time: baseline 92.2 ± 9.5; for LV mass: baseline 495.8 ± 45.9; for LV end-systolic dimension: baseline 5.72 ± 0.41. As for the experimental part: (§1) DITPA cross-reacted with antibodies for detection of T3, which consequently was not measured. Renal and hepatic function tests also were performed. Patients were randomly assigned in double-blind fashion to receive either DITPA at a dosage of 1.875 mg/kg daily or placebo in two or three divided doses. For the first four days of drug administration patients were monitored on a telemetry unit. Thereafter, weekly electrocardiograms were performed and patients were examined for changes in thyroid or cardiac status or evidence of drug toxicity.
(§2) At the end of two weeks an echocardiogram was obtained. If there was no clinical evidence of progression of heart failure or development of an arrhythmia the dose of DITPA was increased to 3.75 mg/kg daily. After an additional two weeks of treatment with the higher dosage of the drug patients were readmitted to the hospital and the tests performed in the initial evaluation were repeated.
M-mode, two-dimensional, and Doppler echocardiograms were obtained with an ultrasonographic system equipped with a […] transducer (GE VingMed, Milwaukee, Wis.) according to the recommendation of the American Society of Echocardiography. Ejection fraction was measured by gated radionuclide myocardial imaging.

A short description of assay [2]: Heart failure patients: right heart catheterization hemodynamics. The assay is classed as in vivo, human. The protocol:
All patients were hospitalized before initiating treatment and a right heart catheterization, radionuclide ejection fraction and echocardiogram were performed. Serum samples were drawn for measurement of thyrotropin, total T4, free T4, and reverse T3.
as §1, §2
Right heart catheterization was performed after the patient had been fasted overnight; no premedication was given. Pulmonary artery, pulmonary capillary wedge and right heart pressures were measured with a 7 Fr Swan-Ganz catheter introduced into the right femoral vein. Blood pressures were recorded with an automated arm cuff system. After an initial stabilization period of 20 to 30 minutes, the resting hemodynamic measurements were obtained. Thermodilution cardiac output measurements were averaged from five recordings after discarding the highest and lowest values. All blood tests were performed in the Clinical Pathology Laboratory at the Southern Arizona Veterans Administration Health Care System.

The mark [3] stands for this setting: echocardiography, after 2 weeks (1.875 mg/kg daily).
Where [4] appears, read: echocardiography, after 4 weeks (3.75 mg/kg daily).

Regarding `O=C(O)CCc1cc(I)c(Oc2ccc(O)cc2)c(I)c1` [DITPA, 3,5-Diiodothyropropionic acid], in assay [1] (setting [3]), the Shortening velocity came to 0.55 ± 0.09 circ/sec, the “Ratio of early to late filling” value is recorded as 0.89 ± 0.17, the LV diastolic dimension is recorded as 6.83 ± 0.35 cm and the Fractional shortening was 13.8 ± 2.4%. In assay [1] (setting [3]), the LV mass came to 474.2 ± 38.2 g. Moreover, the Isovolumic relaxation time in assay [1] (echocardiography, after 2 weeks (1.875 mg/kg daily), contrast baseline to 2 weeks P = 0.051) is 87.5 ± 9.2^++ msec. Besides, in assay [1] (setting [4]), the Shortening velocity was found to be 0.57 ± 0.10 circ/sec, the “Ratio of early to late filling” value is listed as 1.16 ± 0.26, the LV end-systolic dimension is recorded as 6.01 ± 0.33 cm and the LV diastolic dimension is 6.96 ± 0.30 cm. Moreover, in assay [1] (setting [4]), the Fractional shortening is recorded as 13.8 ± 2.5% and the LV mass was 477.9 ± 40.5 g. The compound further returned an Isovolumic relaxation time in assay [1] (echocardiography, after 4 weeks (3.75 mg/kg daily), ANOVA P 0.045) of 84.4 ± 8.5 ms. Besides, in assay [1] (heart failure patients n=9, echocardiography, after 2 weeks (1.875 mg/kg daily)), the LV end-systolic dimension is 5.87 ± 0.30 cm. The “Cardiac Index” value in assay [2] (after 4 weeks, baseline 2.10 ± 0.14, P 0.04 vs placebo) came to 2.54 ± 0.16 liters/min/m^2. In assay [2] (after 4 weeks, baseline 96.2 ± 6.7), the “Mean Arterial Pressure” value worked out at 92.0 ± 5.7 mm Hg. Moreover, the “Systemic Vascular Resistance” value in assay [2] (after 4 weeks, baseline 3,465 ± 319, P 0.02 vs placebo) is listed as 2,644 ± 257 dynes x sec x cm^−5. In assay [2] (heart failure patients n=9, right heart catheterization, after 4 weeks of treatment, baseline 84.8 ± 4.9), the “Heart Rate” value was 89.6 ± 5.3. Also, the Right atrial pressure in assay [2] (right heart catheterization, after 4 weeks, baseline 8.1 ± 1.7) is recorded as 10.5 ± 1.8 mm Hg. Also, the “Pulmonary artery pressures, Wedge” value in assay [2] (right heart catheterization, after 4 weeks, baseline 24.0 ± 3.9) is recorded as 21.8 ± 2.75 mm Hg. For the same compound, the “Pulmonary artery pressures, Diastolic” value in assay [2] (right heart catheterization, after 4 weeks, baseline 25.1 ± 4.1) turned out to be 25.4 ± 2.5 mm Hg. Further, in assay [2] (right heart catheterization, after 4 weeks, baseline 30.1 ± 5.0), the “Pulmonary artery pressures, Mean” value was determined as 33.4 ± 3.2 mm Hg. Besides, the “Pulmonary artery pressures, Systolic” value in assay [2] (right heart catheterization, after 4 weeks, baseline 45.0 ± 6.2) is 49.1 ± 5.3 mm Hg. The “Cardiac Output” value in assay [2] (thermodilution, after 4 weeks, baseline 4.50 ± 0.36, P 0.07 vs placebo) worked out at 5.30 ± 0.36 L/min.
